Target: T7 RNA polymerase (Escherichia phage T7, UniProt P00573)
Experiment: One-pot IVT preparation of 5′ capped mRNA (production yield, full-length purity)
Format: biochemical
Description: The 5′ end initiator, 1007a, (FIG. 1A) was used to prepare capped mRNAs that encode for ABE and luciferase proteins. In this Example and for all others described herein, the ABE mRNA sequence was MA004 (SEQ. 0001) and the luciferase mRNA sequence was the Photinus pyralis (Firefly) luciferase sequence described in NCBI reference sequence XM_031473197.1. These mRNA can be produced by different methods well known in the art. One of such methods used herein was in vitro transcription (IVT) using T7 polymerase; or in other embodiments, additional RNA polymerase variants. This IVT reaction to produce mRNA used a linearized DNA template that comprised a T7 polymerase promoter and associated regulatory sequences, mRNA coding sequence (CDS), 3′ and 5′ untranslated regions (UTRs), poly A tail, and additional sequence elements to facilitate and modulate mRNA stability and in vivo performance. Prior to IVT, the DNA template was in the form of a plasmid; in other embodiments the DNA template is in the form of a PCR product, synthetic DNA product, or any other double-stranded DNA construct. Linearization of the DNA template with a restriction digestion enzyme was performed in order to promote run-off transcription. The typical IVT reaction included T7 polymerase, DNA template, RNase inhibitor, cap analog, inorganic pyrophosphatase, and the naturally occurring ribonucleoside triphosphates (NTPs) such as GTP, ATP, CTP, and N1-methyl pseudouridine triphosphosphate; in some embodiments NTPs include UTP or modified NTPs such as pseudouridine, 5′methyl cytidine, 5-methoxy uridine, N6-methyl adenosine, and N4-acetyl cytidine. The 1007a 5′ end initiator was added to the IVT reaction along with ATP, GTP, CTP, and N1-methyl pseudouridine triphosphate at a 1:1 initiator-to-NTP molar ratio and additional ratios described in Example 5 (B). Poly A tail was encoded in the DNA template that was added to the mRNA during transcription; in some instances, poly A tail is added to the mRNA after the IVT reaction using an RNA ligase enzyme. Finally, T7 RNA polymerase was added to the mixture and the IVT reaction was run at 37° C. for about 1-4 hours. After IVT, DNase was added to the transcription mixture to remove DNA template; in some instances, residual DNA is removed with chromatography. This mRNA was purified to remove residual reaction products and impurities, and stored in 1 mM citrate buffer. Characterization of production yield and mRNA full-length purity was performed by UV spectrometry and capillary gel electrophoresis methods, which are known in the art. […] Similar IVT and purification process are used to produce mRNA encoding SpCas9, Cas12b, CBE, and other ABEs; in all cases the DNA template, reaction conditions, and purification parameters are optimized for the specific gene of interest.
Similarly, ABE encoding mRNA with 5′ end region, 1107a, (FIG. 1B) was produced and characterized as described in the paragraph above.

Chain of T7 RNA polymerase (P00573 whole entry): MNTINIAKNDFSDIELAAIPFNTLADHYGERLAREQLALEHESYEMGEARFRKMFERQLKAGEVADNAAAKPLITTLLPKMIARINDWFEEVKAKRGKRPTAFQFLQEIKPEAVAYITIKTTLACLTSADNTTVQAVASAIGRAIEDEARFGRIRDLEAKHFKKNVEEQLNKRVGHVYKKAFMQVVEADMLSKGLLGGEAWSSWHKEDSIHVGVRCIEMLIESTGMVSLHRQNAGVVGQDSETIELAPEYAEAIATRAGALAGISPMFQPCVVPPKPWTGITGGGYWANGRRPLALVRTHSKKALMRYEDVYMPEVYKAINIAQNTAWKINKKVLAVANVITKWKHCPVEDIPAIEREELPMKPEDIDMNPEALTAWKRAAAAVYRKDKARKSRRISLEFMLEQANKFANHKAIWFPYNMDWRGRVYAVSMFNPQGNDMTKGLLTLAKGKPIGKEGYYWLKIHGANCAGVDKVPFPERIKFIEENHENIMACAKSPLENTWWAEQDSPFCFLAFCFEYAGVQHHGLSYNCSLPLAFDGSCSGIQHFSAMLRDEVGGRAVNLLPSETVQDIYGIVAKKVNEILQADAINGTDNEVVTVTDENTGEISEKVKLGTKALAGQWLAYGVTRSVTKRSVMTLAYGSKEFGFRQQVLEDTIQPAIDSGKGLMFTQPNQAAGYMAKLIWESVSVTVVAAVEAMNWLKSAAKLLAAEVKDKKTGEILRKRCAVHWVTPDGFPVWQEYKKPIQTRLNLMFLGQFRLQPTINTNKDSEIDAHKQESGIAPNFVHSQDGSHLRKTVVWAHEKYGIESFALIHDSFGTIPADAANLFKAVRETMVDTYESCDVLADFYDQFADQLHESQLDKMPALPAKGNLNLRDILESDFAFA

Question: What does the source list for `COC1C(OP([O-])(=S)OCC2OC(n3cnc4c(=O)[nH]c(N)nc43)C(O)C2O)C(COP(=O)(O)OP(=O)(O)OP(=O)(O)OCC2OC(n3c[n+](C)c4c(=O)[nH]c(N)nc43)C(O)C2O)OC1n1cnc2c(N)ncnc21` (stereo not drawn) [1007a, m^7G(ppp)Am(ps)G]?
Answer: final production yield of mRNA (ABE encoding mRNA made with the 5′ end initiator, T7 IVT, FIG. 2): about 3.3 mg per 1 ml of IVT reaction; mRNA full-length purity (ABE encoding mRNA made with the 5′ end initiator, capillary gel electrophoresis, FIG. 3): about 88%; amount of full-length mRNA produced (initiator-to-NTP ratio ranging from 1:1 down to 1:5, FIG. 3): did not reduce

Reference: patent publication US12264175B2, “Compositions and methods for capping RNAS” (Verve Therapeutics, Inc., priority 2020, dated 2025)
